Experimental data published in patent US20230312616A1, “MODULATORS OF CYSTIC FIBROSIS TRANSMEMBRANE CONDUCTANCE REGULATOR” (priority 2018, published 2023).

Test system: CFTR
Experiment: CFTR modulating activity, generated using one or more of the assays disclosed (e.g. membrane potential dye assay in enteroid cells)
Format: cell-based, human
Conditions: one or more of the assays disclosed herein; qualitative (Active / ND)
Description: Human intestinal epithelial enteroid cells may be obtained from the Hubrecht Institute for Developmental Biology and Stem Cell Research, Utrecht, The Netherlands and expanded in T-Flasks as previously described (Dekkers JF, Wiegerinck CL, de Jonge HR, Bronsveld I, Janssens HM, de Winter-de Groot KM, Brandsma AM, de Jong NWM, Bijvelds MJC, Scholte BJ, Nieuwenhuis EES, van den Brink S, Clevers H, van der Ent CK, Middendorp S and M Beekman JM. A functional CFTR assay using primary cystic fibrosis intestinal organoids. Nat Med. 2013 Jul;19(7):939-45.).
Cells may be recovered in cell recovery solution, collected by centrifugation at 650 rpm for 5 min at 4° C., resuspended in TryPLE and incubated for 5 min at 37° C. Cells can then be collected by centrifugation at 650 rpm for 5 min at 4° C. and resuspended in IEMM containing 10 µM ROCK inhibitor (RI). The cell suspension is then passed through a 40 µm cell strainer and resuspended at 1x10^6 cells/mL in IEMM containing 10 µM RI. Cells may be seeded at 5000 cells/well into multi-well plates and incubated for overnight at 37° C., 95% humidity and 5% CO2 prior to assay.
Enteroid cells may be incubated with test compound in IEMM for 18-24 hours at 37° C., 95% humidity and 5% CO2. Following compound incubations, a membrane potential dye assay can be employed using a FLIPR Tetra to directly measure the potency and efficacy of the test compound on CFTR-mediated chloride transport following acute addition of 10 µM forskolin and 300 nM N-[2,4-bis(1,1-dimethylethyl)-5-hydroxyphenyl]-1,4-dihydro-4-oxoquinoline-3-carboxamide. Briefly, cells aree washed 5 times in Bath 1 Buffer. Bath 1 Dye Solution is added and the cells are incubated for 25 min at room temperature. Following dye incubation, cells are washed 3 times in Chloride Free Dye Solution. Chloride transport is initiated by addition of Chloride Free Dye Stimulation Solution and the fluorescence signal is read for 15 min. The CFTR-mediated chloride transport for each condition may be determined from the AUC of the fluorescence response to acute forskolin and 300 nM N-[2,4-bis(1,1-dimethylethyl)-5-hydroxyphenyl]-1,4-dihydro-4-oxoquinoline-3-carboxamide stimulation.
Chloride transport may be expressed as a percentage of the chloride transport following treatment with one or more reference standards or positive controls. Suitable reference standards/controls include one or more of Compound II, Compound III, Compound IV, and Compound A. Compound A is:
Table 6 confirms CFTR modulating activity for representative compounds of the invention generated using one or more of the assays disclosed herein.

Structure (SMILES)	CFTR Modulating Activity
C[C@@H]1CN(c2nc(-n3ccc(OCCC4(C(F)(F)F)CC4)n3)ccc2C(=O)NS(=O)(=O)c2ccccc2)C(C)([Si](C)(C)C)C1 (single isomer, unassigned) [2-10 Isomer 2]	Active
CC1(C)CC([Si](C)(C)C)CN1c1nc(-n2ccc(OCCC3(C(F)(F)F)CC3)n2)ccc1C(=O)NS(=O)(=O)c1ccccc1 (single isomer, unassigned) [2-13 Enantiomer 1, N-(Benzenesulfonyl)-2-(2,2-dimethyl-4-trimethylsilyl-pyrrolidin-1-yl)-6-[3-[2-[1-(Trifluoromethyl)Cyclopropyl]Ethoxy]Pyrazol-1-yl]Pyridine-3-carboxamide]	Active
C[C@@H]1CN(c2nc(-n3ccc(OCCC4(C(F)(F)F)CC4)n3)c([Si](C)(C)C)cc2C(=O)NS(=O)(=O)c2ccccc2)C(C)(C)C1 [Compound 2-1, N-(Benzenesulfonyl)-6-[3-[2-[1-(Trifluoromethyl)Cyclopropyl]Ethoxy]Pyrazol-1-yl]-2-[(4S)-2,2,4-trimethylpyrrolidin-1-yl]-5-trimethylsilyl-pyridine-3-carboxamide]	Active
C[C@@H]1CN(c2nc([Si](C)(C)c3ccccc3)ccc2C(=O)NS(=O)(=O)c2ccccc2)C(C)(C)C1 [Compound 2-2, N-(Benzenesulfonyl)-6-[Dimethyl(Phenyl)Silyl]-2-[(4S)-2,2,4-trimethylpyrrolidin-1-yl]Pyridine-3-carboxamide]	Active
C[C@@H]1CN(c2nc([Si](C)(C)CCC(C)(C)C)ccc2C(=O)NS(=O)(=O)c2ccccc2)C(C)(C)C1 [Compound 2-3, N-(benzenesulfonyl)-6-[3,3-dimethylbutyl(dimethyl)silyl]-2-[(4S)-2,2,4-trimethylpyrrolidin-1-yl]pyridine-3-carboxamide]	Active
Cc1ccc([Si](C)(C)c2ccc(C(=O)NS(=O)(=O)c3ccccc3)c(N3C[C@@H](C)CC3(C)C)n2)cc1 [Compound 2-4, N-(Benzenesulfonyl)-6-[Dimethyl(p-tolyl)Silyl]-2-[(4S)-2,2,4-trimethylpyrrolidin-1-yl]pyridine-3-carboxamide]	Active
C[C@@H]1CN(c2nc(-n3ccc([Si](C)(C)CCC(C)(C)C)n3)ccc2C(=O)NS(=O)(=O)c2ccccc2)C(C)(C)C1 [Compound 2-5, N-(Benzenesulfonyl)-6-[3-[3,3-dimethylbutyl(Dimethyl)Silyl]Pyrazol-1-yl]-2-[(4S)-2,2,4-trimethylpyrrolidin-1-yl]Pyridine-3-carboxamide]	Active
C[C@@H]1CN(c2nc(-n3ccc(OCCC4([Si](C)(C)C)CC4)n3)ccc2C(=O)NS(=O)(=O)c2ccccc2)C(C)(C)C1 [Compound 2-6, N-(Benzenesulfonyl)-2-[(4S)-2,2,4-trimethylpyrrolidin-1-yl]-6-[3-[2-(1-trimethylsilylcyclopropyl)Ethoxy]Pyrazol-1-yl] Pyridine-3-carboxamide]	Active
C[C@@H]1CN(c2nc(-n3ccc(OCC[Si](C)(C)C)n3)ccc2C(=O)NS(=O)(=O)c2ccccc2)C(C)(C)C1 [Compound 2-7, N-(Benzenesulfonyl)-2-[(4S)-2,2,4-trimethylpyrrolidin-1-yl]-6-[3-(2-trimethylsilylethoxy)Pyrazol-1-yl]Pyridine-3-carboxamide]	Active
C[C@@H]1CN(c2nc([Si](C)(C)C)ccc2C(=O)NS(=O)(=O)c2ccccc2)C(C)(C)C1 [Compound 2-8, N-(Benzenesulfonyl)-2-[(4S)-2,2,4-trimethylpyrrolidin-1-yl]-6-trimethylsilyl-pyridine-3-carboxamide]	Active
C[C@@H]1CN(c2nc(-n3ccc(OCCC[Si](C)(C)C)n3)ccc2C(=O)NS(=O)(=O)c2ccccc2)C(C)(C)C1 [Compound 2-9, N-(Benzenesulfonyl)-2-[(4S)-2,2,4-trimethylpyrrolidin-1-yl]-6-[3-(3-trimethylsilylpropoxy)Pyrazol-1-yl]Pyridine-3-carboxamide]	Active
C[C@@H]1CN(c2nc(-n3ccc(OC[Si](C)(C)C)n3)ccc2C(=O)NS(=O)(=O)c2ccccc2)C(C)(C)C1 [Compound 2-11, N-(Benzenesulfonyl)-2-[(4S)-2,2,4-trimethylpyrrolidin-1-yl]-6-[3-(Trimethylsilylmethoxy)Pyrazol-1-yl]Pyridine-3-carboxamide]	Active
C[C@@H]1CN(c2nc(-n3ccc([Si](C)(C)CCC(F)(F)F)n3)ccc2C(=O)NS(=O)(=O)c2ccccc2)C(C)(C)C1 [Compound 2-12, N-(Benzenesulfonyl)-6-[3-[Dimethyl(3,3,3-trifluoropropyl)Silyl]Pyrazol-1-yl]-2-[(4S)-2,2,4-trimethylpyrrolidin-1-yl]Pyridine-3-carboxamide]	Active
C[C@@H]1CN(c2nc(-n3ccc([Si](C)(C)C(C)(C)C)n3)ccc2C(=O)NS(=O)(=O)c2ccccc2)C(C)(C)C1 [Compound 2-14, N-(benzenesulfonyl)-6-[3-[Tert-butyl(Dimethyl)Silyl]Pyrazol-1-yl]-2-[(4S)-2,2,4-trimethylpyrrolidin-1-yl]Pyridine-3-carboxamide]	Active
C[C@@H]1CN(c2nc(-n3ccc(OC[Si](C)(C)C(C)(C)C)n3)ccc2C(=O)NS(=O)(=O)c2ccccc2)C(C)(C)C1 [Compound 2-15, N-(Benzenesulfonyl)-6-[3-[[tert-butyl(dimethyl)silyl]methoxy]pyrazol-1-yl]-2-[(4S)-2,2,4-trimethylpyrrolidin-1-yl]pyridine-3-carboxamide]	Active
C[C@@H]1CN(c2nc(-n3ccc(OCC(C)(C)C(F)(F)F)n3)ccc2C(=O)NS(=O)(=O)c2cccc([Si](C)(C)C)c2)C(C)(C)C1 [Compound 2-16, 6-[3-(3,3,3-trifluoro-2,2-dimethyl-propoxy)pyrazol-1-yl]-2-[(4S)-2,2,4-trimethylpyrrolidin-1-yl]—N—(3-trimethylsilylphenyl)sulfonyl-pyridine-3-carboxamide]	Active
C[C@@H]1CN(c2nc(-n3ccc(OCCC4(C(F)(F)F)CC4)n3)ccc2C(=O)NS(=O)(=O)c2cccc([Si](C)(C)C)c2)C(C)(C)C1 [Compound 2-17, 6-[3-[2-[1-(Trifluoromethyl)Cyclopropyl]Ethoxy]Pyrazol-1-yl]-2-[(4S)-2,2,4-trimethylpyrrolidin-1-yl]-N-(3-trimethylsilylphenyl)Sulfonyl-pyridine-3-carboxamide]	Active
C[C@@H]1CN(c2nc(-n3ccc([Si](C)(C)C)n3)ccc2C(=O)NS(=O)(=O)c2ccccc2)C(C)(C)C1 [Compound 2-18, N-(benzenesulfonyl)-2-[(4S)-2,2,4-trimethylpyrrolidin-1-yl]-6-(3-trimethylsilylpyrazol-1-yl)pyridine-3-carboxamide]	Active
